This passage reports Sterilization effect results from patent publication US9060541B2, “Sterilizer for foods” (Kawakami Co., Ltd., priority 2009, dated 2015).

Format in all cases: cell-based
Holding throughout (design): key: D: There is no sterilization effect.; C: There is a sterilization effect in step (1) but no sterilization effect in step (2).; B: There is a sterilization effect up to step (2) but no sterilization effect in step (3).; A: There is a sterilization effect up to step (3)

The subject of assay [1] is Enteroaggregative Escherichia coli O111:H21 K-H-6. Briefly: Comparison test of sterilization effects against various food poisoning microbes.
Assay [2] relates to Aeromonas hydrophila KX-A428. Described as above.
The test system of a further assay is Escherichia coli (NIHJ). As to the kind of experiment: Sterilization effect determination test (Fujimoto's modified method of the Kelsey-Sykes method). Conditions: Table 1; compositions of calcinated calcium and ethanol, water remainder; 20° C.; steps (1)-(3); listed as Ethanol 30 wt %.
The test system of assay [3] is Staphylococcus aureus (209P). The assay is described as above. Conditions: Table 2; compositions of calcinated calcium and ethanol, water remainder; 20° C.; steps (1)-(3); listed as Ethanol 30 wt %.
Assay [4] deals with Candida albicans NCPF 3179. Briefly: Comparison test of sterilization effects against various food poisoning microbes.
[5] abbreviates: Table 7, test microbe solution without yeast extract.
[6] abbreviates: Table 8, yeast extract 4 weight % blended in test microbe solution.

As to `CCO` [EtOH 30%, ethanol], the Sterilization effect result in assay [1] (setting [5]) was “D”; in assay [1] (setting [6]), “D”; in assay [2] (setting [5]), “B”; in assay [2] (setting [6]) it was “C”; with Escherichia coli (NIHJ) it was “C”; in assay [3], “D”. For the same molecule, the Sterilization effect entry was “B” in assay [4] (setting [5]) and “C” in assay [4] (setting [6]).
In the case of `[Na+].[O-]Cl` [S.H 150 ppm, sodium hypochlorite], the Sterilization effect entry is “A” in assay [1] (setting [5]); “D” in assay [1] (setting [6]); “A” in assay [2] (setting [5]); “D” in assay [2] (setting [6]); “A” in assay [4] (setting [5]); “D” in assay [4] (setting [6]).
